This note sets out measurements from patent publication US20170340693A1, “DISLODGEMENT AND RELEASE OF HSC USING ALPHA 9 INTEGRIN ANTAGONIST AND CXCR4 ANTAGONIST” (COMMONWEALTH SCIENTIFIC AND INDUSTRIAL RESEARCH ORGANISATION, priority 2014, published 2017).

The target in one test is α9β1 integrin (Homo sapiens, UniProt P05556+Q13797). The test is described as follows: In vitro (saturation) binding of R-BC154. Also noted: expressed in transfected cells; host or cells: LN18 (ATCC CRL-2610), retrovirally transduced; endogenous α4 silenced with pSM2c-shITGA4. The note with it: in vitro binding data. On the procedure:
(§1) Cultured α4β1, α9β1 and control LN18 cells (0.5×10^6 cells) were treated with 100 μl of compound (R-BC154) at 0, 1, 3, 10, 30 and 100 nM in TBS-2% FBS (containing either no cations, 1 mM CaCl2—MgCl2 or 1 mM MnCl2). The cells were incubated at 37° C. for 60 min, washed once with TBS-2% FBS, dry pelleted and resuspended in the relevant binding buffer for flow cytometric analysis. Mean channel fluorescence was plotted against concentration and fitted to a one-site saturation ligand binding curve using GraphPad Prism 6. The dissociation constant, Kd was determined from the curves.

Test [1] relates to bone marrow progenitor cells (LSK) and HSC (LSKSLAM). The test is described as follows: In vivo bone marrow binding assay. To be noted: 10 mg kg−1 intravenously, versus un-injected mice. On the procedure: R-BC154 (IXb) in PBS (10 mg kg-1) was injected intravenously into C57 mice. After 5 min, bone marrow cells were isolated as previously described in D. N. Haylock et at Stem Cells, 2007, 25, 1062-1069 and J. Grassinger, et al Cytokine, 2012, 58, 218-225. Briefly, one femur, tibia and iliac crest were excised and cleaned of muscle. After removing the epi- and metaphyseal regions, bones were flushed with PBS-2% FBS to obtain whole bone marrow, which were washed with PBS-2% FBS and then immunolabelled for flow cytometry. For analysis of R-BC154 (IXb) binding, the following antibody combinations were chosen to minimise emission spectra overlap. […]
To assess whether R-BC154 (IXb) and this class of N-phenylsulfonyl proline-based peptidomimetics could bind directly to HSC, R-BC154 (IXb) (10 mg kg^−1) was injected intravenously into mice and analysed for R-BC154 (IXb) labelling of phenotypically defined bone marrow progenitor cells (LSK cell; lineage-Sca-1+c-Kit+) and HSC (LSKSLAM cell; LSKCD48-CD150+) using multi-colour flow cytometry. […] Furthermore, in vivo R-BC154 (IXb) binding was also confirmed by fluorescence microscopy on purified populations of progenitor cells (Lineage-Sca-1+c-Kit+).

The target in another test is α4β1 integrin (Homo sapiens, UniProt P05556+P13612). The test is described as follows: In vitro (saturation) binding of R-BC154. To be noted: in vitro binding data. Further details: expressed in transfected cells; host or cells: LN18 (ATCC CRL-2610), retrovirally transduced. On the procedure: as §1
The test system of another test is α4β1 or α9β1 LN18 cells. Briefly: Association and dissociation (off-rate) kinetics in vitro. It is filed as binding, human. As for the experimental part:
Eppendorf vials containing α4β1 or α9β1 LN18 cells (0.5×10^6 cells) were treated with 50 nM of R-BC154 (IXb) (100 μl in TBS-2% FBS containing either 1 mM CaCl2—MgCl2 or 1 mM MnCl2 at 37° C. until for 30 min, washed once with the relevant binding buffer and dry pelleted. The cells were treated with 500 nM of an unlabelled competing inhibitor (100 μl, in TBS-2% FBS containing either 1 mM CaCl2—MgCl2 or 1 mM MnCl2) at 37° C. for the times indicated (0, 2.5, 5, 15, 30, 45, 60 min). The cells were diluted with cold TBS-2% FBS (containing the relevant cations), pelleted by centrifugation, washed once and resuspended (˜200 μl) in binding buffer for flow cytometric analysis. Mean channel fluorescence was plotted against time and the data was fitted to either a one-phase or two-phase exponential decay function using GraphPad Prism 6. The off-rate, koff was extrapolated from the curves.
Eppendorf vials containing α4β1 or α9β1 LN18 cells (0.5×10^6 cells) in 50 μl TBS-2% FBS containing either 1 mM CaCl2—MgCl2 or 1 mM MnCl2 were pre-activated in a heating block for 20 min at 37° C. […] Mean channel fluorescence was plotted against time and the data was fitted to either a one-phase or two phase association function using GraphPad Prism 6. The observed on-rate, kobs was extrapolated from the curves and kon was calculated using […]

Sequence of α4β1 integrin (P13612 34-1032): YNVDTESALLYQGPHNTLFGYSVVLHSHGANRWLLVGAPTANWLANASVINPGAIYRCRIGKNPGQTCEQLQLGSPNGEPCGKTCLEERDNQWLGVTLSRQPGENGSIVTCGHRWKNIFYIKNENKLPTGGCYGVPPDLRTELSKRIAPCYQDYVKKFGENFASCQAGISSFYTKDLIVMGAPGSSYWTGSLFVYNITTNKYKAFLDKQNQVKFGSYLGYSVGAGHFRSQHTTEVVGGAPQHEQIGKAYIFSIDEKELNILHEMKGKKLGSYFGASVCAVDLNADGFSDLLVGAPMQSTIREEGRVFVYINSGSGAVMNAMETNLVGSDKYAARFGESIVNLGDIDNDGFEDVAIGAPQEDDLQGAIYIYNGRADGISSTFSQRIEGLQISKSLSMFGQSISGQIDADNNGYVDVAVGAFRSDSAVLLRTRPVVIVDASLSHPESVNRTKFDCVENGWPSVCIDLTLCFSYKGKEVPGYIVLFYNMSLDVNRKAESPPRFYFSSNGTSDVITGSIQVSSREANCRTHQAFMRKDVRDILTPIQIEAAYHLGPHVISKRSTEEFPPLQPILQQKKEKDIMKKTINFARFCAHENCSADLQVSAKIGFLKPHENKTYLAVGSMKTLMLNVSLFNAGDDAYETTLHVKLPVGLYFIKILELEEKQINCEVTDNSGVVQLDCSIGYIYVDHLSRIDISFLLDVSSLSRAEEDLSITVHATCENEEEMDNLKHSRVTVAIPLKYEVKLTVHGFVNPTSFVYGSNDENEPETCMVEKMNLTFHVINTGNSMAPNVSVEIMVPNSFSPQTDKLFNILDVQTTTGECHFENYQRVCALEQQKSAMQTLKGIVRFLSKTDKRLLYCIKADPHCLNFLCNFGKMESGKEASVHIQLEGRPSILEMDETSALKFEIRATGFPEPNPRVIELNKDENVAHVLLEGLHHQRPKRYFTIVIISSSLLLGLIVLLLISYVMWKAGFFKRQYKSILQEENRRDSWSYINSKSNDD
Sequence of α4β1 integrin (P05556 21-798): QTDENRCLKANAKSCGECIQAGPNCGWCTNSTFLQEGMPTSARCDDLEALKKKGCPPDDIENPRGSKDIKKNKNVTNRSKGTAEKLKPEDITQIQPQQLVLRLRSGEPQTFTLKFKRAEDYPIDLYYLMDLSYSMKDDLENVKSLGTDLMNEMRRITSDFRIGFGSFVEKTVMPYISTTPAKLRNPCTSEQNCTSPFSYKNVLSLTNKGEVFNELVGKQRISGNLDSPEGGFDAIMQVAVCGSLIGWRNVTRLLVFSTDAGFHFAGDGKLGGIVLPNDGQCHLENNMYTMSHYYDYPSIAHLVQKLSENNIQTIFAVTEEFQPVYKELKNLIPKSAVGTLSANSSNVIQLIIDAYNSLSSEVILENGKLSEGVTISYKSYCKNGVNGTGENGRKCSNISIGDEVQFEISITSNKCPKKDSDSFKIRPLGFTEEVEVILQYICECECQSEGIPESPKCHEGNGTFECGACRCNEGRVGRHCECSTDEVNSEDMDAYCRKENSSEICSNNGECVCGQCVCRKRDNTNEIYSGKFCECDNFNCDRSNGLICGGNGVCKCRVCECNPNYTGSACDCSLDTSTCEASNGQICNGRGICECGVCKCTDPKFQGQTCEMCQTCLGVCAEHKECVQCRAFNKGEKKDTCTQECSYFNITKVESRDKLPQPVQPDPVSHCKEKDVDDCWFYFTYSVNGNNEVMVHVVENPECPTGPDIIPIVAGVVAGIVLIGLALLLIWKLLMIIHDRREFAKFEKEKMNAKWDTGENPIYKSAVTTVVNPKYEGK
Sequence of α9β1 integrin (Q13797 30-1035): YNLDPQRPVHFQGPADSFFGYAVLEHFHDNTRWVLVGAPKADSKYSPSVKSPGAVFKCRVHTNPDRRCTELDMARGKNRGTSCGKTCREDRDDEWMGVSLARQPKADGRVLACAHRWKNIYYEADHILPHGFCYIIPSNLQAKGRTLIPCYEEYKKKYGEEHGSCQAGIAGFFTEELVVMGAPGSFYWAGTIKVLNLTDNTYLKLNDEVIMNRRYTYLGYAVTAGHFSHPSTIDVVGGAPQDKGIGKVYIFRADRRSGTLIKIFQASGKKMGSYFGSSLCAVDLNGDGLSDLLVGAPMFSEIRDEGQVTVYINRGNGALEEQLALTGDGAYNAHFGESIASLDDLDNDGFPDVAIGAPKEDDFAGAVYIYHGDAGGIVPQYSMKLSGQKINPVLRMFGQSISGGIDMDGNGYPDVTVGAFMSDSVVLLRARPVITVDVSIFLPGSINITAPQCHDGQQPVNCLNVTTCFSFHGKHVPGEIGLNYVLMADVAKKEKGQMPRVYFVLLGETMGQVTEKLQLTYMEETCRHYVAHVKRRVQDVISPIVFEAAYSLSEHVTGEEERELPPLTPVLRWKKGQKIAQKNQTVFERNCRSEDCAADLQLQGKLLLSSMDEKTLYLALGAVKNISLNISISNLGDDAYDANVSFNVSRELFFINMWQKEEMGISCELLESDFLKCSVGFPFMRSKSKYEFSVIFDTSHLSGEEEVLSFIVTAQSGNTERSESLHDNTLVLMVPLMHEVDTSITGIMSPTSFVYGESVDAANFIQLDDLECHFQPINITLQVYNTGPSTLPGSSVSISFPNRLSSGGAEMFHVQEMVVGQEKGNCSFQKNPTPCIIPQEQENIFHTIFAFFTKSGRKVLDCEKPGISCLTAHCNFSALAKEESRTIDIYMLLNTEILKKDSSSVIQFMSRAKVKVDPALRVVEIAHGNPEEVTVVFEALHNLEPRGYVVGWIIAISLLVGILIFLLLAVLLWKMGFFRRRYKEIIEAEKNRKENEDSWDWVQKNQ
Sequence of α9β1 integrin (P05556 21-798): as the sequence (P05556 21-798) above

Regarding `CCN(CC)c1ccc2c(-c3ccc(S(=O)(=O)NCc4cn(C5C[C@@H](C(=O)N[C@@H](Cc6ccc(OC(=O)N7CCCC7)cc6)C(=O)O)N(S(=O)(=O)c6ccccc6)C5)nn4)cc3S(=O)(=O)[O-])c3ccc(=[N+](CC)CC)cc-3oc2c1` (some centres unmarked) [R-BC154 (IXb)], on α9β1 integrin, the “affinity for α9β1 integrin” value is on record as “high affinity”. Moreover, the “labelling of BM progenitor cells and HSC after injection” value in test [1] is reported as “Increased cell-associated fluorescence”. Besides, the “affinity for α4β1 integrin” value on α4β1 integrin is listed as “high affinity”. The “off-rates for α9β1 compared to α4β1” value with α4β1 or α9β1 LN18 cells is “significantly reduced off-rates”. In addition, the “binding affinities relative to BOP” value in the test on α4β1 or α9β1 LN18 cells (association and dissociation kinetics studies in vitro) is on record as “lower binding affinities”.
